Data on 11 molecules can be found in patent US9175045B2, “Peptidomimetic macrocycles” (Aileron Therapeutics, Inc., priority 2008, dated 2015).

One assay addresses human serum proteins. The experiment in a line: Apparent affinity to human serum proteins (Kd*) by EC50 shift analysis. Type of assay: in vitro ADME. The conditions noted are these: nonlinear regression of EC50 shift with serum, n = 1, P = 700 μM for 100% serum. The source says: The measurement of apparent Kd values for serum protein by EC50 shift analysis provides a simple and rapid means of quantifying the propensity of experimental compounds to bind HSA and other serum proteins. A linear relationship exists between the apparent EC50 in the presence of serum protein (EC′50) and the amount of serum protein added to an in vitro assay. This relationship is defined by the binding affinity of the compound for serum proteins, expressed as Kd*. This term is an experimentally determined, apparent dissociation constant that may result from the cumulative effects of multiple, experimentally indistinguishable, binding events. The form of this relationship is presented here in Eq. 0.3, and its derivation can be found in Copeland et al, Biorg. Med. Chem. Lett. 2004, 14:2309-2312. [formula] A significant proportion of serum protein binding can be ascribed to drug interactions with HSA, due to the very high concentration of this protein in serum (35-50 g/L or 530-758 μM). To calculate the Kd value for these compounds we have assumed that the shift in EC50 upon protein addition can be ascribed fully to the HSA present in the added serum, where P is 700 μM for 100% serum, P is 70 μM for 10% serum, etc. We further made the simplifying assumption that all of the compounds bind HSA with a 1:1 stoichiometry, so that the term n in Eq. (0.3) is fixed at unity. With these parameters in place we calculated the Kd* value for each stapled peptide from the changes in EC50 values with increasing serum (and serum protein) concentrations by nonlinear regression analysis of Eq. 0.3 using Mathematica 4.1 (Wolfram Research, Inc., www.wolfram.com). EC′50 values in whole blood are estimated by setting P in Eq. 0.3 to 700 μM [HSA].

A further assay deals with Jurkat cell line. The format is cell-based. The conditions noted are these: for EC50: 24 h. As to the method:
Jurkat cell line (Clone E6-1, ATCC catalog #TIB-152) is grown in specific serum-supplemented media (RPMI-1640, Invitrogen catalog #22400) as recommended by ATCC. A day prior to the initiation of the study, cells are split at optimal cell density (2×10^5-5×10^5 cells/ml) to assure actively dividing cells. The next day, cells are washed twice in serum-free Opti-MEM media (Invitrogen, Catalog #51985) and cells are then plated at optimal cell density (10,000 cells/well) in 50 μl Opti-MEM media or Opti-MEM supplemented with 2% or 10% human serum (Bioreclamation, catalog #HMSRM) in 96-well white tissue culture plate (Nunc, catalog #136102).
For serum free experiment, crosslinked polypeptides are diluted from 2 mM stocks (100% DMSO) in sterile water to prepare 400 μM working solutions. The crosslinked polypeptides and controls are diluted 10-fold first and then serially two-fold diluted in Opti-MEM in dosing plates to provide concentrations of between 1.2 and 40 μM. 50 μl of each dilution is then added to the appropriate wells of the test plate to achieve final concentrations of the polypeptides equal to between 0.6 to 20 μM. For studies using Opti-MEM supplemented with human serum (Bioreclamation, catalog #HMSRM), crosslinked polypeptides are diluted from 10 mM stocks (100% DMSO) in sterile water to prepare 2 mM working solutions. The crosslinked polypeptides and controls are diluted 10-fold first and then serially two-fold diluted in Opti-MEM in the presence of 2% or 10% of human serum to provide concentrations of the polypeptides equal to between 6.25 to 200 μM in dosing plates. 50 μl of each dilution is then added to the appropriate wells of the test plate to achieve final concentrations of the polypeptides equal to between 3.125 to 100 μM. Controls included wells without polypeptides containing the same concentration of DMSO as the wells containing the macrocycles, wells containing 0.1% Triton X-100 and wells containing no cells. Plates are incubated for 24 hours at 37° C. in humidified 5% CO2 atmosphere.
At the end of the incubation period, CellTiter-Glo assay is performed according to manufacturer's instructions (Promega, catalog #G7573) and luminescence is measured using Synergy HT Plate reader (BioTek). Luminescence correlates with viability. A reduction in viability reflects the ability of the test compounds to induce programmed cell death via BAX and BAK.

Assay [1] deals with T1, human serum proteins (binding ascribed fully to human serum albumin, HSA) (human, UniProt P02768 25-609).
T1 construct: No purified HSA was used
The experiment in a line: apparent Kd* by EC50 shift analysis: Jurkat viability EC50 at 0, 2 and 10% human serum, fit assuming 1:1 binding to HSA.

Assay [2] addresses T1, human serum proteins (binding ascribed …). The experiment in a line: cell-based or functional assay.

Numbered stars: 1 amine (or outer) side, 2 acyl side, 3 side chain; on linkers, the order of the positions; unused ones are H or OH. Bridge positions count the residues as written; N and C are the ends. Square brackets hold non-standard residues; d marks the D form. Peptide text beside a SMILES is read from it. * marks the point of attachment. ξ: configuration not given here. ξαMeNle(6-ylidene) = CC(CCCC=[*:3])(N[*:1])C(=O)[*:2]; S5 = C=CCCC[C@](C)(N)C(=O)O; Nle = CCCC[C@H](N)C(=O)O; Aib = CC(C)(N)C(=O)O; Propionyl = CCC(=O)* Bounds are passed on as bounds.

What is called EC50 is the midpoint of the concentration-response curve.

T1 sequence (P02768 25-609 limits assumed): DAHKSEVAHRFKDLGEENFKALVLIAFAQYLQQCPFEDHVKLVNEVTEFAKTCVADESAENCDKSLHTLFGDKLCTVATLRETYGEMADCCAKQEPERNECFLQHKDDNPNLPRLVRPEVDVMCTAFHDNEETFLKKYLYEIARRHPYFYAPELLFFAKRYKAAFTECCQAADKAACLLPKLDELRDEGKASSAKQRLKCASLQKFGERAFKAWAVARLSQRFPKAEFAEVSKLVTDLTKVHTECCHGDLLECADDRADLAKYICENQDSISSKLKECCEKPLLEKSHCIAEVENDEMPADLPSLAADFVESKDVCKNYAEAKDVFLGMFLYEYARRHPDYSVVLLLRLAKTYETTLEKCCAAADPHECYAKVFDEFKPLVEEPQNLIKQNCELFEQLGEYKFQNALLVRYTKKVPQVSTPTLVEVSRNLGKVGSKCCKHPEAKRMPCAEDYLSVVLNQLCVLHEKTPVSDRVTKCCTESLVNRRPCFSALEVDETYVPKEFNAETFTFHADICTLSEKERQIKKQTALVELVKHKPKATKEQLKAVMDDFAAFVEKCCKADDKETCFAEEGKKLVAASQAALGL

With `CC[C@H](C)[C@H](NC(=O)[C@H](Cc1c[nH]c2ccccc12)NC(=O)[C@H](CCCNC(=N)N)NC(C)=O)C(=O)N[C@@H](C)C(=O)N[C@@H](CCC(N)=O)C(=O)N[C@@H](C)C(=O)N[C@@H](CC(C)C)C(=O)N[C@@H](CCCNC(=N)N)C(=O)NC1(C)CCCC=CCCCC(C)(C(=O)N[C@@H](Cc2ccccc2)C(=O)N[C@@H](CC(N)=O)C(=O)N[C@@H](C)C(=O)N[C@@H](Cc2ccccc2)C(=O)N[C@@H](Cc2ccc(O)cc2)C(=O)N[C@@H](C)C(=O)N[C@@H](CCCNC(=N)N)C(=O)N[C@@H](CCCNC(=N)N)C(N)=O)NC(=O)[C@H](CC(=O)O)NC(=O)CNC(=O)[C@H]([C@@H](C)CC)NC1=O` (stereo partly drawn) [Compound 14, Ac-RWIAQALR$1GD$FNAFYARR-NH2], the Kd on human serum proteins was determined as 2300 nM. For the same molecule, in the assay with Jurkat cell line, the EC50 came to 400 nM.

Consider `CCCC[C@H](NC(=O)C1(C)CCCC=CCCCC(C)(NC(=O)[C@H](C)NC(=O)[C@H](CC(C)C)NC(=O)[C@H](Cc2c[nH]cn2)NC(=O)[C@H](CCCNC(=N)N)NC(=O)[C@H](C)NC(=O)[C@@H](NC(=O)[C@H](CC(N)=O)NC(=O)[C@H](CCCNC(=N)N)NC(=O)CC)[C@@H](C)CC)C(=O)N[C@@H](C(C)C)C(=O)NC(C)(C)C(=O)N[C@@H](CC(=O)O)C(=O)N1)C(=O)N[C@@H](CC(=O)O)C(=O)N[C@@H](CCCNC(=N)N)C(=O)N[C@@H](CO)C(=O)N[C@H](C(N)=O)[C@@H](C)CC` (stereo partly drawn) [Compound 5, Pr-RNIARHLA$VAibD$NleDRSI-NH2] (Propionyl-RNIARHLA[ξαMeNle(6-ylidene)]V[Aib]D[ξαMeNle(6-ylidene)][Nle]DRSI-NH2; staple 9-13), for which, at human serum proteins, the Kd was 200 nM. For the same molecule, the EC50 in the assay on Jurkat cell line was 1600 nM.

In the case of `CCC(=O)N[C@@H](CCCNC(=N)N)C(=O)N[C@@H](CC(N)=O)C(=O)N[C@H](C(=O)N[C@@H](C)C(=O)N[C@@H](CCCNC(=N)N)C(=O)N[C@@H](Cc1c[nH]cn1)C(=O)N[C@@H](CC(C)C)C(=O)N[C@@H](C)C(=O)NC1(C)CCCC=CCCCC(C)(C(=O)N[C@@H](Cc2ccccc2)C(=O)N[C@@H](C)C(=O)N[C@@H](CCCNC(=N)N)C(=O)N[C@@H](CO)C(=O)N[C@H](C(N)=O)[C@@H](C)CC)NC(=O)[C@H](CC(=O)O)NC(=O)C(C)(C)NC(=O)[C@H](C(C)C)NC1=O)[C@@H](C)CC` (stereo partly drawn) [Compound 7, Pr-RNIARHLA$VAibD$FARSI-NH2] (Propionyl-RNIARHLA[ξαMeNle(6-ylidene)]V[Aib]D[ξαMeNle(6-ylidene)]FARSI-NH2; staple 9-13), the Kd at human serum proteins was found to be 1100 nM. Besides, in the assay on Jurkat cell line, the half-maximal effective concentration (EC50) is 2200 nM.

In the case of `CC[C@H](C)[C@H](NC(=O)[C@H](CCCNC(=N)N)NC(=O)[C@H](CCCNC(=N)N)NC(=O)[C@H](CCCNC(=N)N)NC(=O)[C@H](CC(C)C)NC(=O)[C@H](CCCNC(=N)N)NC(=O)[C@H](CCC(=O)O)NC(C)=O)C(=O)NC1(C)CCCC=CCCCC(C)(C(=O)N[C@@H](Cc2c[nH]cn2)C(=O)N[C@@H](Cc2c[nH]cn2)C(=O)N[C@@H](CO)C(=O)N[C@H](C(N)=O)[C@@H](C)O)NC(=O)[C@H](CCCNC(=N)N)NC(=O)[C@H](C)NC(=O)[C@H](CC(C)C)NC1=O` (stereo partly drawn) [Compound 18, Ac-ERLRRRI$LAR$HHST-NH2] (Ac-ERLRRRI[ξαMeNle(6-ylidene)]LAR[ξαMeNle(6-ylidene)]HHST-NH2; staple 8-12), the Kd on human serum proteins was less than 100 nM. Further, in the assay on Jurkat cell line, the EC50 was greater than 20000 nM.

Regarding `CCCC[C@H](NC(=O)C1(C)CCCC=CCCCC(C)(NC(=O)C(C)(C)NC(=O)[C@H](CC(C)C)NC(=O)[C@H](Cc2c[nH]cn2)NC(=O)[C@H](CCCNC(=N)N)NC(=O)[C@H](C)NC(=O)[C@@H](NC(=O)[C@H](CC(N)=O)NC(=O)[C@H](CCCNC(=N)N)NC(=O)CC)[C@@H](C)CC)C(=O)N[C@@H](C(C)C)C(=O)NC(C)(C)C(=O)N[C@@H](CC(=O)O)C(=O)N1)C(=O)N[C@@H](CC(=O)O)C(=O)N[C@@H](CCCNC(=N)N)C(=O)N[C@@H](CO)C(=O)N[C@H](C(N)=O)[C@@H](C)CC` (stereo partly drawn) [Compound 6, Pr-RNIARHLAib$VAibD$NleDRSI-NH2] (Propionyl-RNIARHL[Aib][ξαMeNle(6-ylidene)]V[Aib]D[ξαMeNle(6-ylidene)][Nle]DRSI-NH2; staple 9-13), the Kd on human serum proteins was determined as 400 nM. In the assay on Jurkat cell line, the EC50 worked out at 1000 nM.

For the molecule `CCCC[C@H](NC(=O)C1(C)CCCC=CCCCC(C)(NC(=O)[C@H](C)NC(=O)[C@H](CC(C)C)NC(=O)[C@H](Cc2c[nH]cn2)NC(=O)[C@H](CCCNC(=N)N)NC(=O)[C@H](C)NC(=O)[C@@H](NC(=O)[C@H](CC(N)=O)NC(=O)[C@H](CCCNC(=N)N)NC(=O)CC)[C@@H](C)CC)C(=O)N[C@@H](C(C)C)C(=O)NCC(=O)N[C@@H](CC(=O)O)C(=O)N1)C(=O)NC(C)(C)C(=O)N[C@@H](CCCNC(=N)N)C(=O)N[C@@H](CO)C(=O)N[C@H](C(N)=O)[C@@H](C)CC` (stereo partly drawn) [Compound 8, Pr-RNIARHLA$VGD$NleAibRSI-NH2] (Propionyl-RNIARHLA[ξαMeNle(6-ylidene)]VGD[ξαMeNle(6-ylidene)][Nle][Aib]RSI-NH2; staple 9-13), the Kd at human serum proteins is 2300 nM. The EC50 in the assay with Jurkat cell line amounted to 2400 nM.

Consider `CC[C@H](C)[C@H](NC(=O)[C@H](CCCNC(=N)N)NC(=O)[C@H](CCCNC(=N)N)NC(=O)[C@H](CCCNC(=N)N)NC(=O)[C@H](CC(C)C)NC(=O)[C@H](CCCNC(=N)N)NC(=O)[C@H](CCC(=O)O)NC(C)=O)C(=O)NC1(C)CCCC=CCCCC(C)(C(=O)N[C@@H](Cc2c[nH]cn2)C(=O)N[C@@H](Cc2c[nH]cn2)C(=O)N[C@@H](CO)C(=O)N[C@H](C(N)=O)[C@@H](C)O)NC(=O)[C@H](CCCNC(=N)N)NC(=O)[C@H](CS)NC(=O)[C@H](CC(C)C)NC1=O` (stereo partly drawn) [Compound 17, Ac-ERLRRRI$LCR$HHST-NH2] (Ac-ERLRRRI[ξαMeNle(6-ylidene)]LCR[ξαMeNle(6-ylidene)]HHST-NH2; staple 8-12), for which, on human serum proteins, the Kd was less than 100 nM. For the same molecule, the 50% effective concentration (EC50) in the assay on Jurkat cell line turned out to be 12000 nM. Besides, the “efficacy in serum-free media and in the presence of serum” value in the assay with Jurkat cell line (statement in words) is listed as “high efficacy in serum-free media, which is substantially reduced in the presence of serum”.

As for Propionyl-RNIARHLA[S5]V[Aib]D[S5]FARSI-NH2 (staple 9-13) [Compound 7 (crosslinked polypeptide derived from human BID BH3)], the Kd in assay [1] turned out to be 1100 nM. In addition, in assay [2], the “2% serum EC50 (Jurkat cell viability, CellTiter-Glo)” value (shortened to “2% serum EC50”) was found to be 12400 nM and the “10% serum EC50 (Jurkat cell viability, CellTiter-Glo)” value (“10% serum EC50” for short) was determined as 48200 nM.

For Ac-DIIRNIARHLA[S5]VGD[S5][Nle]DRSI-NH2 (staple 12-16) [Compound 1 (crosslinked polypeptide derived from human BID BH3)], the Kd in assay [1] was less than 100 nM. Moreover, in assay [2], the “2% serum EC50” value stood at 73900 nM and the “10% serum EC50” value is greater than 100000 nM.

On to Propionyl-RNIARHLA[S5]V[Aib]D[S5][Nle]DRSI-NH2 (staple 9-13) [Compound 5 (crosslinked polypeptide derived from human BID BH3)], for which the Kd in assay [1] was 200 nM. In addition, in assay [2], the “2% serum EC50” value came to 16700 nM and the “10% serum EC50” value is 63000 nM.

On to Propionyl-RNIARHL[Aib][S5]V[Aib]D[S5][Nle]DRSI-NH2 (staple 9-13) [Compound 6 (crosslinked polypeptide derived from human BID BH3)], for which the Kd in assay [1] was found to be 400 nM. In addition, in assay [2], the “2% serum EC50” value came out at 10100 nM and the “10% serum EC50” value stood at 49700 nM.
